Literature values, collected in patent US20160120848A1, “SPECIFIC CANCER TREATMENT REGIMES WITH GANETESPIB” (SYNTA PHARMACEUTICALS CORP., priority 2013, published 2016).

Legend:
[1] = tested on: leukemia cells that express either wild type FLT3 or FLT3-ITD mutations; conditions: cells expressing wild type FLT3 or FLT3-ITD mutations; cited from earlier work
Kasumi-1 cells = conditions: Kasumi-1, acute myeloid leukemia cell line with c-Kit mutation; cited from earlier work
FLT3 with Hsp90 = conditions: cited from earlier work

Structure (SMILES): C=CCNC1=C2C[C@@H](C)C[C@H](OC)[C@H](O)[C@@H](C)/C=C(\C)[C@H](OC(N)=O)[C@@H](OC)/C=C\C=C(/C)C(=O)NC(=CC1=O)C2=O [17AAG]
- growth of leukemia cells [1]: inhibited
- apoptosis (Kasumi-1 cells): induce apoptosis
- effect on association of FLT3 with Hsp90 (FLT3 with Hsp90): disrupt the association of FLT3 with Hsp90
